Laboratory results reported in patent US7498336B2, “Deazaflavin compounds and methods of use thereof” (The United States of America as represented by the …, priority 2003, dated 2009).
Square brackets hold non-standard residues; d marks the D form. Peptide text beside a SMILES is read from it. Nle = CCCC[C@H](N)C(=O)O

What was measured:
Nedd4 = biological target: T1, Nedd4 (Homo sapiens, UniProt P46934); experiment: In vitro ubiquitination assay (E1+E2+E3) with unrelated E3 ligase; type: biochemical; details: gel assay, FIG. 2B, 2C
T1 construct: made in house
T1 sequence (P46934 1-1319): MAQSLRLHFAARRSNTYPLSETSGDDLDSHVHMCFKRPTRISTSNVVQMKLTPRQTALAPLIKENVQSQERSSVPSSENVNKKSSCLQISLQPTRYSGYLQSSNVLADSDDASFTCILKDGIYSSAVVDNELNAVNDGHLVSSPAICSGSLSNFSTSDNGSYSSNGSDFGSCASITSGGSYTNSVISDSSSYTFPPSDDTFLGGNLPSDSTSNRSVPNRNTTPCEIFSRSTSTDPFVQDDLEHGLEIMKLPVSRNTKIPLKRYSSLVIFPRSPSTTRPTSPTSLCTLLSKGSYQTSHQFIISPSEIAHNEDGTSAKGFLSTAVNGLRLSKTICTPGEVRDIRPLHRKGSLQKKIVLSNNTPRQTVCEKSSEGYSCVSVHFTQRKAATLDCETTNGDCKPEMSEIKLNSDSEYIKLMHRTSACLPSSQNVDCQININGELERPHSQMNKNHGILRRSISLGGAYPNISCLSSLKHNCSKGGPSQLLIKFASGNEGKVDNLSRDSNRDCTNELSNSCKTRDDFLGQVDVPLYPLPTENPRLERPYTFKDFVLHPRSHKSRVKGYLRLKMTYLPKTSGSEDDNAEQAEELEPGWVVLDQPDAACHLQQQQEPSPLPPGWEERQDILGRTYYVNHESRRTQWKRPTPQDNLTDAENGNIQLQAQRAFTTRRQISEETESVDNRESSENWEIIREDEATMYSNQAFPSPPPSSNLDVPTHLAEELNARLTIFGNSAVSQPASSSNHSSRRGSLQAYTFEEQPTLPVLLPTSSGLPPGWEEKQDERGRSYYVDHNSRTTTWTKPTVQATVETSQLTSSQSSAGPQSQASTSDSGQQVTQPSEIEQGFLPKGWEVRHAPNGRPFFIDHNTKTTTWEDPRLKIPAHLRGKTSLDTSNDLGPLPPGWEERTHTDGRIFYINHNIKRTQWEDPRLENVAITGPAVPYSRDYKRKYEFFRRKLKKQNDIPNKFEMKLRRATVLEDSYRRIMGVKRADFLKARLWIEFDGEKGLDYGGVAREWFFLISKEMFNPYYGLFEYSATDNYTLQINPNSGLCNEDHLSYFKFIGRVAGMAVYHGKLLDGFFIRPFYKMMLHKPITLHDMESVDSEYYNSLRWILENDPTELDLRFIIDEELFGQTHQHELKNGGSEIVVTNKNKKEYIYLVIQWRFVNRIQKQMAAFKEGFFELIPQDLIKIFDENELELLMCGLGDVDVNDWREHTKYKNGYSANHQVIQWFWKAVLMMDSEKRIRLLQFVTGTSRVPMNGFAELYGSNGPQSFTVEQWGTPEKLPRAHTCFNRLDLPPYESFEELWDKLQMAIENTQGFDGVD
Method: (§1) 1 pmole per experimental point of bacterially expressed GST-MDM2 (or GST-Nedd) was coupled to glutathione Sepharose (GS) for 30 minutes at room temperature with tumbling, followed by 3× wash with 50 mM Tris pH 7.5. Following this, 20 μl of 1× buffer was added (40 μl 10× reaction buffer*, 40 μl 10× PCK**, 320 μl dH2O). The test compound in DMSO is then added to the desired concentration with an equal volume of DMSO used as a control. Samples are incubated with shaking for 1 hr at 23° C. To carry out the reaction, a pre-made cocktail of Rabbit E1 (Calbiochem #6620700)/UbcH5B/^32P Ub cocktail (1 μl/0.5 μl/1 μl) is added followed by 15 minutes shaking at 30° C. The reaction is terminated by addition of 8 μl 4× reducing SDS-PAGE loading buffer. After dissociating proteins from the beads at 100° C. for 2 minutes, samples are resolved on 6% PAGE followed by exposure of the dried gel to phosphor screen. Note: ^32P Ub is derived from GST-Ub that has been engineered to include a PKA phosphorylation site. This fusion protein is purified on glutathione Sepharose, phosphorylated, following this, the ^32P Ub ubiquitin is cleaved and purified away from the thrombin.

rabbit E1 = biological target: T2, rabbit E1 (Oryctolagus cuniculus, UniProt Q29504); experiment: E1 only assay (thiol-ester linkage of ubiquitin with E1); type: biochemical; details: FIG. 2D
T2 construct: purchased Calbiochem 6620700
T2 sequence (Q29504 1-1058): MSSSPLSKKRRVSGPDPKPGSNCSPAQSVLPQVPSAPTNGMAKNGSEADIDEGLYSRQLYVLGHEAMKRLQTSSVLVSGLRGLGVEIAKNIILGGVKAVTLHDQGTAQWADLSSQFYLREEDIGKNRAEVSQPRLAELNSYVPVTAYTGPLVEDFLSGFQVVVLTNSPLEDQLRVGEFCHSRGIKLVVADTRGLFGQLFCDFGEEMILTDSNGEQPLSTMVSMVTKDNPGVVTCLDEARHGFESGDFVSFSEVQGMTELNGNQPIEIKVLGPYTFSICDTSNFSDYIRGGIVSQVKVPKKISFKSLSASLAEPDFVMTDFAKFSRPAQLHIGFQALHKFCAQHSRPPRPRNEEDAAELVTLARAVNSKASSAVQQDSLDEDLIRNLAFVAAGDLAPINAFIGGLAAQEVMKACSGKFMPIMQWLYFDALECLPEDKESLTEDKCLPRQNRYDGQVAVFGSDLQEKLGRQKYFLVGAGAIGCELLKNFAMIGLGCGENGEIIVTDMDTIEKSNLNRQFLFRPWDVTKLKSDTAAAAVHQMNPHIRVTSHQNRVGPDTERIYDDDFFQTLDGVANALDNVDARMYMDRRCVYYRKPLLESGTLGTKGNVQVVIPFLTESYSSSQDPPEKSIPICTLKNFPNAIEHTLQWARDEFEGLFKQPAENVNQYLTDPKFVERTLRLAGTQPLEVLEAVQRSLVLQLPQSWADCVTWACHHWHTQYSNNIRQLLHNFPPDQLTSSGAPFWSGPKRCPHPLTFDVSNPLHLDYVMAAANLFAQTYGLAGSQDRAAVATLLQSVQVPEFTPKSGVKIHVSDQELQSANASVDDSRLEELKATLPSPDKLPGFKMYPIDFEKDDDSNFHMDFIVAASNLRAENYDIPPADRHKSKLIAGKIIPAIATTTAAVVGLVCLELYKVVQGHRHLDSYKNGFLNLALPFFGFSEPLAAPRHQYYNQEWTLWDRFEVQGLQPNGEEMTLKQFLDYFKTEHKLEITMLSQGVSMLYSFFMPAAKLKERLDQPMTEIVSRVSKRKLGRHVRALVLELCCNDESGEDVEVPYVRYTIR
Method: 2 μl rabbit E1 +12 μl of 1× reaction buffer are mixed together with the test compound followed by addition of 1 μl of ^32P Ub is added for 10 minutes at room temperature followed by resolution by SDS-PAGE under non-reducing conditions to maintain thiol-ester linkages and exposure as above.

GST-MDM2 = biological target: T3, GST-MDM2 (Homo sapiens, UniProt Q00987); experiment: Standard MDM2 in vitro ubiquitination assay (E1+E2+E3), SDS-PAGE gel; type: biochemical; details: FIG. 2A, 2F
T3 construct: made in house
T3 sequence (Q00987 whole entry): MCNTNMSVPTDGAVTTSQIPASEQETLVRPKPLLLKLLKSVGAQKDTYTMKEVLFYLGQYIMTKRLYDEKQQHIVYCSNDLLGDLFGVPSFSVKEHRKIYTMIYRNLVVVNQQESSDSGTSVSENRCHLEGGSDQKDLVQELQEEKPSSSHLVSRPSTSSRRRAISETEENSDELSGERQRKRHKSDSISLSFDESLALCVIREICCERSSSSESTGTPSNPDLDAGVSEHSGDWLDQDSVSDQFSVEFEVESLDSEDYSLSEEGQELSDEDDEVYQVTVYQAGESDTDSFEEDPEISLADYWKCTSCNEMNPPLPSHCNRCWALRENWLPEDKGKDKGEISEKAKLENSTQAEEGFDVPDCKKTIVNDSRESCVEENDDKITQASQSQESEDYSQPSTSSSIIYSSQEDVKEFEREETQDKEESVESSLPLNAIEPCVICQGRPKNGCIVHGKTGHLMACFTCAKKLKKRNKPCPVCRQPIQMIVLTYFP
Method: a. “Standard MDM2 in vitro Ubiguitination Assay” (E1+E2+E3 Assay)
as §1, with “To carry out the reaction, a pre-made cocktail of Rabbit E1 (Calbiochem #6620700)/UbcH5B/^32P Ub cocktail (1 μl/0.5 μl/1 μl) is added followed by 15 minutes shaking at 30° C.” left out
• 500 mM Tris (pH 7.5) • 2 mM ATP • 5 mM MgCl2 • 1 mM DTT • 10 mM creatine phosphate (Sigma P4635) (45 mg/10 ml). **10× PCK • Sigma C7886, 1000 U, reconstitute in 200 μl 10 mM Tris pH 8.0.

[1] = biological target: T4, p53 pre-bound to GST-MDM2 (Homo sapiens, UniProt Q00987); experiment: In vitro p53 ubiquitination assay; type: biochemical; details: cellular p53 pre-bound to GST-MDM2, FIG. 2G
T4 construct: made in house; host or cells: GST-MDM2: bacteria; p53: SaOS-p53 inducible cells
T4 sequence (Q00987 whole entry): as above
T4 sequence (P04637 whole entry partner): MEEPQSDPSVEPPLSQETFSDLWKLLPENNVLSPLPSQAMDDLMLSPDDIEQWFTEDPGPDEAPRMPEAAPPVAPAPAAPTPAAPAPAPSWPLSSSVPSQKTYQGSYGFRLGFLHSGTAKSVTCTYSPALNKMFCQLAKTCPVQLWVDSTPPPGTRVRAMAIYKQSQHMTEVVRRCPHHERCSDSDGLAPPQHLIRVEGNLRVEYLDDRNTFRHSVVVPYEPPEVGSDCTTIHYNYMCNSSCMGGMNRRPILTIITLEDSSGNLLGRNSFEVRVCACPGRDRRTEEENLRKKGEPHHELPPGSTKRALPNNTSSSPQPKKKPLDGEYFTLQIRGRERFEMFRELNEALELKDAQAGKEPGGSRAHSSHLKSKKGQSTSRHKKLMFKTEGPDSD
Method: d. In Vitro R53 Ubiguitination Assay
p53 protein from SaOS-p53 inducible cell lysate was purified from cells using GST-MDM2 (5 pmol) pre-bound to GS beads. Samples were then incubated with test compounds as above. Subsequently 2 μl rabbit E1, 1 μl UbcH5b, and 10 μg of ubiquitin were added. After reaction for 15 min at 23° C., samples were subject to SDS-PAGE under reducing conditions, transferred to nitrocellulose membranes and immunoblotted with anti-p53 (DO-1) followed by ECL using standard techniques.

[2] = test system: Normal human fibroblast MRC-5; experiment: Cell based assay for accumulation of MDM2 and p53 (immunoblot); details: MRC-5 cells; for MDM2 level / p53 level: 50 μM, 8 hours
Method: Methods: Normal human fibroblast MRC-5 were chosen to determine whether the compounds from the high throughput screening can inhibit the E3 activity of Mdm2, i.e. stabilizing MDM2 and p53 in vivo. After being seeded in 12-well tissue culture cluster overnight, the cells were treated with 50 μM of the compounds for 8 hours. They were harvested with trypsin-EDTA, washed with PBS, and lysed with RIPA buffer. Following removal of insoluble pellet by centrifugation for 20 minutes at 10000 rpm, the lysate was separated on 4-20% gradient SDS-polyacrylamide gel and transferred onto nitrocellulose membrane. The membrane was then blotted with anti-p53 antibody (DO-1), anti-MDM2 antibodies (Ab-1 and Ab-2), anti-p27 (Santa Cruz), anti-Nedd4, and anti-p21Waf1 antibody. After extensive washing with PBS containing 0.5% Triton X-100, it was incubated with HRP-labeled donkey anti-mouse antibody and visualized using enhanced chemiluminescence.

[3] = test system: E1A-transformed RPE cells; experiment: Apoptosis in E1A-transformed RPE cells; type: cell-based, human; details: FIG. 4 left
Excerpt: Cell-based assays include model systems where primary human epithelial cells (“normal cells”) are compared to the same cells expressing the adenovirus E1A oncogene (“transformed cells”). Activation of p53 was not toxic to normal cells, but activation of p53 in transformed cells induces p53-mediated apoptosis. High concentrations of wild type (wt) p53 protein can induce apoptosis in a variety of different tumor cells. Potential inhibitors of MDM2 would regulate the stability and function of p53 and MDM2. Preferably the assays measure number of cells undergoing apoptosis due to MDM2 induced p53 degradation in tumor cells in the presence or absence of candidate compounds as compared to normal cells in the presence or absence of candidate compounds. An increase in the number of these cells undergoing apoptosis in the presence of candidate compounds in tumor cells, as compared to normal untreated cells is indicative of a potential anti-tumor compound. […]
Apoptosis and cell death were determined by FACS analysis of sub-G1 nuclei or counting trypan blue-positive cells under microscope. Caspase activity was measured using fluorogenic substrate Ac-DEVD-AFC and CytoFluor multi-well plate reader (PerSeptive Biosystems). […]

Structure (SMILES)	selectivity of inhibition of MDM2 versus unrelated E3 ligase Nedd4 (Nedd4)	inhibition of thiol-ester linkage of ubiquitin with E1 (rabbit E1)	inhibition of MDM2 E3 ligase (auto-ubiquitination) (GST-MDM2)	inhibition of p53 ubiquitination by MDM2 [1]	MDM2 level [2]	p53 level [2]	p21 level ([2]; FIG. 3C)	apoptosis [3]
O=c1nc2n(-c3ccc(Cl)cc3)c3ccc([N+](=O)[O-])cc3cc-2c(=O)[nH]1 [Compound 97H10, 10-(4-chloro-phenyl)-7-nitro-10H-pyrimido[4,5-b]quinoline-2,4-dione]	inhibits all E3s	block the activity of the E1 enzyme	–	–	–	–	–	–
O=c1nc2n(-c3ccc(Cl)cc3)c3ccc([N+](=O)[O-])cc3cc-2c(=O)[nH]1 [Compound 98D07, 10-(-4-chloro-phenyl)-7-nitro-10H-pyrimido[4,5-b]quinoline-2,4-dione]	–	–	inhibition of MDM2 auto-ubiquitination	significant dose-dependent inhibition of p53 ubiquitination	specifically increase MDM2 and p53	specifically increase MDM2 and p53	–	–
Cc1ccc(-n2c3nc(=O)[nH]c(=O)c-3cc3cc([N+](=O)[O-])ccc32)cc1 [Compound 98E07, 10-(-4-methyl-phenyl)-7-nitro-10H-pyrimido[4,5-b]quinoline-2,4-dione]	–	–	inhibition of MDM2 auto-ubiquitination	–	specifically increase MDM2 and p53	specifically increase MDM2 and p53	–	–
CCCC[C@@H](C=O)NC(=O)[C@H](CC(C)C)NC(=O)[C@H](CC(C)C)NC(C)=O [LLNL, reference compound] (Ac-Leu-Leu-[Nle]-aldehyde)	–	–	–	–	accumulated MDM2, p53, and p21	accumulated MDM2, p53, and p21	accumulated MDM2, p53, and p21	markedly increased apoptosis
